From article PMC7224190, “Pharmacological inhibition of PRMT7 links arginine monomethylation to the cellular stress response” (Nature Communications, 2020)

Molecular target: T1, PRMT9 (Homo sapiens, UniProt Q6P2P2)
T1 sequence (Q6P2P2 1-845): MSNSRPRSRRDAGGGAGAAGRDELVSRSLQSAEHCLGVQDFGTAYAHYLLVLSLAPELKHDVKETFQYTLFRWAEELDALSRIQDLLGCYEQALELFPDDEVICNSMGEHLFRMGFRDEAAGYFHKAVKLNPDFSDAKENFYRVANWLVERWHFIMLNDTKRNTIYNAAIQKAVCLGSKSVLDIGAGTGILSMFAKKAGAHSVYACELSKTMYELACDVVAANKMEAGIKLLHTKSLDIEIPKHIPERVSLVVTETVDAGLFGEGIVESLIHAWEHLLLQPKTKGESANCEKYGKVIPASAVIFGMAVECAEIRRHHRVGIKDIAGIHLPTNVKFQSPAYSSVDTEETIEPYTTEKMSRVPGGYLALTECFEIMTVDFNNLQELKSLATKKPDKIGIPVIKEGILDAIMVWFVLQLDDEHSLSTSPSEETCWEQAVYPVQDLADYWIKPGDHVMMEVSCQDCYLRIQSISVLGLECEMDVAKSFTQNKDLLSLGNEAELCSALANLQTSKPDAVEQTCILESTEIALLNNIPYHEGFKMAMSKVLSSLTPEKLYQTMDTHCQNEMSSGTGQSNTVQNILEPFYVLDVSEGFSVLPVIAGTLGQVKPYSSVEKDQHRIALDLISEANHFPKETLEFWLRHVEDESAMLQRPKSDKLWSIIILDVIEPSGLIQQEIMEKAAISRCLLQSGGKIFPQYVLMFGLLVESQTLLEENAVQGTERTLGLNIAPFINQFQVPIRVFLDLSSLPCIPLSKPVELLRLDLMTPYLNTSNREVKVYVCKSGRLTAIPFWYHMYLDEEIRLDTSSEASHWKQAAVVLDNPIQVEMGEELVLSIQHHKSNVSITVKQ
Experiment: biochemical
Parameters: radiometric methyltransferase assay with tritiated SAM, IC50
Description: The methyltransferase selectivity was assessed at two compound concentrations of 1 and 10 μM by radiometric assays using tritiated-SAM. For methyltransferases: MLL1, MLL3, EZH1 (PRC2), and EZH2 (PRC2), G9a, GLP, SUV39H1, SUV39H2, SUV420H1, SUV420H2, SETD2, SETD8, SETDB1, SETD7, PRMT1, PRMT3, PRMT4, PRMT5/ MEP50 complex, PRMT6, PRMT7, PRMT8, PRMT9, PRDM9, SMYD2, SMYD3, DNMT1, and BCDIN3D the incorporation of a tritium-labeled methyl group into biotinylated substrate was monitored using scintillation proximity assay (SPA). Briefly, a 10 μL reaction containing ^3H-SAM and substrate at concentrations close to the apparent Km values for each enzyme (balanced conditions) was prepared. The reactions were quenched with 10 μL of 7.5 M guanidine hydrochloride; 180 μL of 20 mM Tris buffer (pH 8.0) were added, and the mixture was transferred to a 96-well FlashPlate and incubated for 1 h. The counts per minute (CPM) was measured on a TopCount plate reader. The CPM in the absence of compound or enzyme was defined as 100% activity and background (0%), respectively, for each dataset[74]–[76]. Selectivity of SGC8158 against 342 kinases was evaluated in a kinase panel TR-FRET assay at 1 and 0.1 μM compound in duplicates as described before. Briefly, tagged kinases were incubated with compound and staurosporine-based fluorescent probe where the binding was detected using Tb conjugated anti-tag antibody energy transfer to the probe. Excitation wavelength was 337 nm and fluorescent emission signal was measured for Tb (486 nm) and fluorescent probe (BODIPY, 515 nm). Specific and non-specific binding was determined in the absence and presence of unlabeled staurosporine. Assays using biotinylated H2B (23–37) as a substrate were performed in buffer (20 mM Tris–HCl, pH 8.5, 0.01% Tween-20, and 5 mM DTT) containing 5 nM PRMT7, 1.1 µM ^3H-SAM (Cat.# NET155V250UC; Perkin Elmer; www.perkinelmer.com) and 0.3 µM H2B (23–37). The reaction mixtures were incubated for 60 min at 23 °C. To stop the enzymatic reactions, 10 µL of 7.5 M guanidine hydrochloride was added, followed by 180 µL of buffer (20 mM Tris, pH 8.0), mixed and then transferred to a 96-well FlashPlate (Cat.# SMP103; Perkin Elmer; www.perkinelmer.com). After mixing, the reaction mixtures in Flash plates were incubated for 1 h and the CPM were measured using Topcount plate reader (Perkin Elmer, www.perkinelmer.com). The CPM counts in the absence of compound for each dataset were defined as 100% activity. In the absence of the enzyme, the CPM counts in each dataset were defined as background (0%). The IC50 values were determined using GraphPad Prism 7 software. For the kinetic analysis of HSPA8 methylation by PRMT7, the assay mixture contained 20 mM Tris–HCl, pH 8.5, 0.01% Tween-20, and 5 mM dithiothreitol (DTT), 1 mM MgCl2, 1 mM ATP where indicated, 250 nM PRMT7, fixed concentration (20 µM) of SAM, various concentrations (up to 40 µM) of HSPA8; or fixed concentration (10 µM) of HSPA8 with different concentrations of SAM (up to 20 µM). […] To determine the mode of action, the experiments were performed in the presence of fixed biotinylated H2B peptide (residues 23–37) or HSPA8 substrate concentration and increasing SAM concentration or at fixed concentration of SAM and varying concentration of the substrate. Twenty µL of reaction mixtures were incubated at 23 °C for 60 min. To stop reactions, 100 µL of 10% trichloroacetic acid (TCA) was added, mixed and transferred to filter-plates (Millipore; cat.# MSFBN6B10; www.millipore.com). Plates were centrifuged at 930 × g (Allegra X-15R—Beckman Coulter, Inc.) for 2 min followed by two additional 10% TCA washes and one ethanol wash followed by centrifugation. Plates were dried and 30 µL MicroScint-O (

## Nc1ncnc2c1ncn2[C@@H]1O[C@H](CSCCCNCc2cccc(-c3ccc(Cl)cc3)c2)[C@@H](O)[C@H]1O [SGC8172]
  IC50: 138 nM
